The text below walks through data of patent US11053204B2, “Pyrimidinyloxy benzene derivatives as herbicides” (FMC Corporation, priority 2015, dated 2021).

Test in all cases: Test A preemergence, visual injury rating
What all share (assay type): in vivo
Holding throughout (details): 0 to 100 scale (0 no effect, 100 complete control)

In test [1] the test system is giant foxtail (Setaria faberii). The method in brief: (§1)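 Injury scores run from 0, no effect, to 100, complete control, judged by eye against untreated plants roughly 10 days after treatment. Chemicals carried a surfactant in a non-phytotoxic solvent and went onto loam–sand soil preemergence or onto one- to two-leaf seedlings postemergence.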
The test system of test [2] is ragweed (common ragweed, Ambrosia elatior). The method in brief:
as §1

Test [3] deals with Italian ryegrass (Lolium multiflorum). The method in brief: as §1
Test [4] concerns pigweed (Amaranthus retroflexus). The method in brief: as §1
Another test deals with kochia (Kochia scoparia). The method in brief:
as §1

For test [5], the system named is barnyardgrass (Echinochloa crus-galli). The method in brief:
as §1

`N#Cc1cccc(Oc2ncc(Cl)cn2)c1C(=O)OCCC(F)(F)F` [Compound 30]: the “Foxtail, Giant plant response rating” value in test [1] (125 g ai/ha) and in test [1] (500 g ai/ha) was 100 in each case. For the same molecule, the “Ragweed plant response rating” value in test [2] (125 g ai/ha) and in test [2] (500 g ai/ha) was 0 each time. Also, the “Ryegrass, Italian plant response rating” value in test [3] (125 g ai/ha) and in test [3] (500 g ai/ha) was 0 each time. Further, the “Pigweed plant response rating” value in test [4] (125 g ai/ha) and in test [4] (500 g ai/ha) was 100 each time. The “Kochia plant response rating” value with kochia (Kochia scoparia) (125 g ai/ha) came out at 90; with kochia (Kochia scoparia) (500 g ai/ha), 100. The “Barnyardgrass plant response rating” value in test [5] (125 g ai/ha) and in test [5] (500 g ai/ha) was 0 each time.
On to `C=C(Br)COC(=O)c1c(Br)cccc1Oc1ncc(Cl)cn1` [Compound 61], for which the “Foxtail, Giant plant response rating” value in test [1] (125 g ai/ha) and in test [1] (500 g ai/ha) was 100 in each case. Also, the “Ragweed plant response rating” value in test [2] (125 g ai/ha) came to 0; in test [2] (500 g ai/ha), 20. For the same molecule, the “Ryegrass, Italian plant response rating” value is on record as 30 in test [3] (125 g ai/ha) and 80 in test [3] (500 g ai/ha). Moreover, the “Pigweed plant response rating” value in test [4] (125 g ai/ha) and in test [4] (500 g ai/ha) was 100 throughout. In addition, the entries for the “Kochia plant response rating” value in the test on kochia (Kochia scoparia) (125 g ai/ha) and in the test on kochia (Kochia scoparia) (500 g ai/ha) were 90 and 100, respectively. Further, the “Barnyardgrass plant response rating” value in test [5] (125 g ai/ha) was determined as 50; in test [5] (500 g ai/ha), 100.
